Experimental data as given in patent publication US20250248998A1, “LRRK2 Inhibitors” (Brenig Therapeutics, Inc., priority 2022, published 2025).

Legend:
LRRK2 WT [1] = target: T1, LRRK2 WT (Homo sapiens, UniProt Q5S007); assay: Cell-based NanoBRET target engagement assay in HEK293 cells transfected with LRRK2 WT-NanoLuc fusion vector; parameters: expressed in transfected cells; host or cells: HEK293 (ATCC); details: compound treatment 1 h
Summary of the method: (§1)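 HEK293 cells transiently transfected with NanoLuc-fused LRRK2 WT or G2019S (1 μg) plus carrier DNA, treated 1 h with compound (10-dose, 3-fold dilution from 1 μM). Target engagement read by NanoBRET; IC50 fitted only when signal at top concentration was below 5500.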
Target sequence in this assay (Q5S007 whole entry, the tested form may be a part): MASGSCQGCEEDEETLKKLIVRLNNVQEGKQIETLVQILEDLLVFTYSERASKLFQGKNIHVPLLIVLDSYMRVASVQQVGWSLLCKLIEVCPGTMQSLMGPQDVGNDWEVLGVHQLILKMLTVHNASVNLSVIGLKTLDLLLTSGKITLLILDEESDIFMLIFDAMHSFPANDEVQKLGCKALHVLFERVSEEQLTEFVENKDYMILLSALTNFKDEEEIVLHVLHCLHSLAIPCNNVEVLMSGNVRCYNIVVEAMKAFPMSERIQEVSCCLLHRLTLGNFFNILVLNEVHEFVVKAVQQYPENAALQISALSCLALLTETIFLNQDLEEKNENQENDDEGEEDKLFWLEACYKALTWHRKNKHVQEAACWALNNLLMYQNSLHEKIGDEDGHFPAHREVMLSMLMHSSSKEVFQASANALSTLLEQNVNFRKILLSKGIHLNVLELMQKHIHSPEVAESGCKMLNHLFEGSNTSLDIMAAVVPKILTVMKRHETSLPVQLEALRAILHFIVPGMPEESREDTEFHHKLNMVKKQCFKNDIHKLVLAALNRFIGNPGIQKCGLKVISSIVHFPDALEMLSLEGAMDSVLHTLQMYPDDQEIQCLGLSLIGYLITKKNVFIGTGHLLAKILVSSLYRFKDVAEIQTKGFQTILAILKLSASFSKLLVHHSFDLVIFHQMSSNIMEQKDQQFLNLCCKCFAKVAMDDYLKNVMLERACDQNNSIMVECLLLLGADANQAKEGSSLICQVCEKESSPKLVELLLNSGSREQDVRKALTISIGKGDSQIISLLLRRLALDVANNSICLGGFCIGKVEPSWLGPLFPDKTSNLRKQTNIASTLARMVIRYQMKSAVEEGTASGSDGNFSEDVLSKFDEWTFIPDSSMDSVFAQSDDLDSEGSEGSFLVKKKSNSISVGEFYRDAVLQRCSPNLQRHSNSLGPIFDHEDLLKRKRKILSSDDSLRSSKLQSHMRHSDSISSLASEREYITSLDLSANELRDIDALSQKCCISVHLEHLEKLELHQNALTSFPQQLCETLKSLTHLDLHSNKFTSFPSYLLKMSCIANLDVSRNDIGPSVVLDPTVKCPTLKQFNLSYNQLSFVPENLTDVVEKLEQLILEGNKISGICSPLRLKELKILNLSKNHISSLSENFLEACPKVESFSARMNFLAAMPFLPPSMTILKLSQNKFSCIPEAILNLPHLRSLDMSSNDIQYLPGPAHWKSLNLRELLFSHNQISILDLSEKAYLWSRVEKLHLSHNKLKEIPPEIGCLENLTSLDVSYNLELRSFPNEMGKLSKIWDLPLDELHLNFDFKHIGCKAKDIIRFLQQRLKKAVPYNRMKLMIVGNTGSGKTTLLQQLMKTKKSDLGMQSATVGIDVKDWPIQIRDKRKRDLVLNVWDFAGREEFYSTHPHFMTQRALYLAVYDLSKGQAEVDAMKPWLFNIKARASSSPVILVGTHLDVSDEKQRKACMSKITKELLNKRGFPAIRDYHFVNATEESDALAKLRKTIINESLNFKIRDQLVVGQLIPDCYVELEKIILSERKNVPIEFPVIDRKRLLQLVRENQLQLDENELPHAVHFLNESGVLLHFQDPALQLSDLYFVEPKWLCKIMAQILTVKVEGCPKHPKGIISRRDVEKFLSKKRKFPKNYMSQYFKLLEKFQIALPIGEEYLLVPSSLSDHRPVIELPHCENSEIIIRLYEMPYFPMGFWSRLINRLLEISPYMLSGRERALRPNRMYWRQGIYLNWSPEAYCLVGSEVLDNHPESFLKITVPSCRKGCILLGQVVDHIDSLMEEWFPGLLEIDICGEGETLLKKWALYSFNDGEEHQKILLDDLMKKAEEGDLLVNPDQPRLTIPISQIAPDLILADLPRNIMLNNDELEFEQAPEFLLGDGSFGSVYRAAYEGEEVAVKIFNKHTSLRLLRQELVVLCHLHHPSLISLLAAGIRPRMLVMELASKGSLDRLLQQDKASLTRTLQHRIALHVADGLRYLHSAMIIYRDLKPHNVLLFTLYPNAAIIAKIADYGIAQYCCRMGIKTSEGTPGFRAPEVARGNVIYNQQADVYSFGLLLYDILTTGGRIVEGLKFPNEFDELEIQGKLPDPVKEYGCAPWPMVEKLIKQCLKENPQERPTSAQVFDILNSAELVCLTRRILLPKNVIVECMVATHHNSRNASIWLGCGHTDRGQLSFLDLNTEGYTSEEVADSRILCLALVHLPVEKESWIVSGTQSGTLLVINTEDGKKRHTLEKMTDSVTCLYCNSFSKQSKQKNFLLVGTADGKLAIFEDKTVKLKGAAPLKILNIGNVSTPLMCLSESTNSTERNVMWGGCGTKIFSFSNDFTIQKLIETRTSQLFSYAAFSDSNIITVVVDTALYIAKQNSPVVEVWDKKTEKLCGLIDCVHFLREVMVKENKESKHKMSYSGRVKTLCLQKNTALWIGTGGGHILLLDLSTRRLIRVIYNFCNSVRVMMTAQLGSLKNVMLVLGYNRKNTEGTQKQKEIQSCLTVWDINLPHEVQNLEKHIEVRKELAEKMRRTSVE

LRRK2[G2019S] [2] = target: T2, LRRK2[G2019S] (Homo sapiens, UniProt Q5S007, G2019S); assay: Enzymatic activity inhibition against LRRK2[G2019S] (ADP-Glo kinase assay, LRRKtide substrate); type: biochemical; parameters: purchased SignalChem Biotech, Inc. L10-12GG-10; details: recombinant LRRK2[G2019S] 36 nM, ATP, 1 h at rt, average Ki
Description: Example A. Primary Assays Used to Determine Potency of the LRRK2 Inhibition
Assay for Determining Enzymatic Activity Inhibition Against LRRK2[G2019S].
Compound activity was determined using recombinant LRRK2[G2019S] protein (SignalChem Biotech, Inc., Cat #L10-12GG-10) and LRRKtide substrate (SignalChem Biotech, Inc., Cat #L10-58) in an in vitro enzymatic reaction. The enzymatic reaction was carried out in assay buffer (40 mM TRIS-HCl pH 7.4, 20 mM MgCl2, 0.05 mM DTT, 0.1 mg/mL BSA). The compounds were dispensed into a 384 well Diamond Well Plate (Axigen, Cat #P-384-120SQ-C-S) using the Biomek FX liquid handling system at the 80× solutions of compounds in DMSO. The 2× Protein-Substrate mix (final concentration 36 nM of LRRK2[G2019S] and 0.8 μg/μL of LRRKtide) was prepared in 1× Assay buffer and 4 μL of mixture per well was added into the 384-well white Reaction plate with NBS (Corning, Cat #CLS4513). The 4 μL of LRRKtide substrate w/o LRRK2[G2019S] in the 1× buffer was used for a negative control. Plates were centrifuged for 1 min at 200 g. Next the compounds were added to the reaction plate using Biomek station via following steps: 1 μL of 80× compounds (in DMSO) were mixed thoroughly with 39 μL of 2×10 μM ATP in Assay Buffer, then 4 μL of this mixture was added to Reaction plate with 4 μL of Protein-Substrate mix. Plates were centrifuged for 1 min at 200 g and incubated for 1 h at rt. Then, 4 μL per well of ADP-Glo reagent (Promega, ADP-Glo™ Kinase Assay, Cat #V9102) was added. Plates were incubated for 30 min at rt. Then, 8 μL per well of Kinase detection reagent (Promega, ADP-Glo™ Kinase Assay, Cat #V9102) was added and the luminescence signal was measured with a microplate reader. The luminescence signal was detected with CLARIOstar Plus (BMG LABTECH) microplate reader. The % inhibition was then used to calculate the Ki values. The average Ki values are shown in Table A, wherein “A” corresponds to Ki<5.0 nM, “B” corresponds to 5.0 nM≤Ki<10.0 nM, “C” 10.0 nM≤Ki<50.0 nM, “D” corresponds to 50.0 nM≤Ki<100.0 nM and “E” corresponds to Ki>100.0 nM.
Target sequence in this assay (Q5S007 970-2527 G2019S limits assumed): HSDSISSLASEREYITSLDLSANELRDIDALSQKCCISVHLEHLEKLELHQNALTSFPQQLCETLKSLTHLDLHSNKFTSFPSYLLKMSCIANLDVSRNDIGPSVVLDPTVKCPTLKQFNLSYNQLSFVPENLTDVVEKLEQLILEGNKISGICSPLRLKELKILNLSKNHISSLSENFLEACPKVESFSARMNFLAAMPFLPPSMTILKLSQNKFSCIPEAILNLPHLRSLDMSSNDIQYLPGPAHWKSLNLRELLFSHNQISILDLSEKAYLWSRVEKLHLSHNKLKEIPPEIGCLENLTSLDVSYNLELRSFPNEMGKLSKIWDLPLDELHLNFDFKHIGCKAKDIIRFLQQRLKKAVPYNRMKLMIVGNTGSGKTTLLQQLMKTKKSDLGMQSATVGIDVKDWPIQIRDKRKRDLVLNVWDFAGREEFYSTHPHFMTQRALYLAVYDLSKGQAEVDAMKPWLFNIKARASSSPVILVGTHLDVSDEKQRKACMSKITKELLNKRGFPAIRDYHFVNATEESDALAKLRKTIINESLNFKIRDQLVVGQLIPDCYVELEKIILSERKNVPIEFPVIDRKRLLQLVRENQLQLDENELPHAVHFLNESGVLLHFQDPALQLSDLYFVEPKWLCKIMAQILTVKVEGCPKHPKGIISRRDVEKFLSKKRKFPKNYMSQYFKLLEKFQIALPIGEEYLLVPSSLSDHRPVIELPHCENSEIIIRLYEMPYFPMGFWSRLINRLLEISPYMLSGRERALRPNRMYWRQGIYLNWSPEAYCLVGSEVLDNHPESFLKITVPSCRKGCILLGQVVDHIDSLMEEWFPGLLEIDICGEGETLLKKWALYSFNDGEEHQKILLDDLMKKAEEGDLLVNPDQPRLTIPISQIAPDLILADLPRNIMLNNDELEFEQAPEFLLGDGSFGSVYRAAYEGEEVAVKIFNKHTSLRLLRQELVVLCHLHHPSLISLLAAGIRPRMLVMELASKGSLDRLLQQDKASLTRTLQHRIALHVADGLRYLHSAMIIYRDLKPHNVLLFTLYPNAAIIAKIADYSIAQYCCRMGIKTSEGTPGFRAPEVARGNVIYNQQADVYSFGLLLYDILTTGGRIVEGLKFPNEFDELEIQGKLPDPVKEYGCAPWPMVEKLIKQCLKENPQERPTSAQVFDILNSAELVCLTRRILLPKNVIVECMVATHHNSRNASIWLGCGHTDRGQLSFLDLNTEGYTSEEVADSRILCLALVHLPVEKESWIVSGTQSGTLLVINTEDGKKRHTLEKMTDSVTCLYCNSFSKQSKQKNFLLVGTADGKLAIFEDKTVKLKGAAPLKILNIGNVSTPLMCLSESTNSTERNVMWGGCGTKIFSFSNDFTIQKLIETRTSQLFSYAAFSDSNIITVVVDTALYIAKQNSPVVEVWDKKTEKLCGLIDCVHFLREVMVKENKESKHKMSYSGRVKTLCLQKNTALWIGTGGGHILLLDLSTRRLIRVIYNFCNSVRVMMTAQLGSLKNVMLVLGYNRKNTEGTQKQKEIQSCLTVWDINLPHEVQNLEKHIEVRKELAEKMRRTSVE

LRRK2[G2019S] [3] = target: T2, LRRK2[G2019S]; assay: Cell-based NanoBRET target engagement assay in HEK293 cells transfected with LRRK2 (G2019S)-NanoLuc fusion vector; parameters: expressed in transfected cells; host or cells: HEK293 (ATCC); details: compound treatment 1 h
Summary of the method: as §1
Target sequence in this assay (Q5S007 whole entry G2019S): as the sequence (Q5S007 whole entry, the tested form may be a part) above, with G2019S counted along it

LRRK2 WT [4] = target: T1, LRRK2 WT; assay: Enzymatic activity inhibition against LRRK2 WT (ADP-Glo kinase assay, LRRKtide substrate); type: biochemical; parameters: purchased SignalChem Biotech, Inc. L10-11G-10; details: recombinant LRRK2 WT 36 nM, ATP, 1 h at rt, average Ki
Description: Example B. Primary Assays Used to Determine Potency of the LRRK2 Inhibition
Assay for Determining Enzymatic Activity Inhibition Against LRRK2 WT.
Compound activity was determined using recombinant LRRK2 WT protein (SignalChem Biotech, Inc., Cat #L10-11G-10) and LRRKtide substrate (SignalChem Biotech, Inc., Cat #L10-58) in an in vitro enzymatic reaction. The enzymatic reaction was carried out in assay buffer (40 mM TRIS-HCl pH 7.4, 20 mM MgCl2, 0.05 mM DTT, 0.1 mg/mL BSA). The compounds were dispensed into a 384 well Diamond Well Plate (Axigen, Cat #P-384-120SQ-C-S) using the Biomek FX liquid handling system at 80× solutions of compounds in DMSO. The 2× Protein-Substrate mix (final concentration 36 nM of LRRK2 WT and 0.8 μg/μL of LRRKtide) was prepared in the 1× Assay buffer and 4 μL of mixture per well was added into the 384-well white Reaction plate with NBS (Corning, Cat #CLS4513). The 4 μL of LRRKtide substrate w/o LRRK2 WT in the 1× buffer was used for a negative control. Plates were centrifuged for 1 min at 200 g. Next the compounds were added to Reaction plate using Biomek station via following steps: 1 μL of 80× compounds (in DMSO) were mixed thoroughly with 39 μL of 2×10 μM ATP in Assay Buffer, then 4 μL of this mixture was added to Reaction plate with 4 μL of Protein-Substrate mix. Plates were centrifuged for 1 min at 200 g and incubated for 1 hour at rt. Then, 4 μL per well of ADP-Glo reagent (Promega, ADP-Glo™ Kinase Assay, Cat #V9102) was added. Plates were incubated for 30 minutes at rt. Then, 8 μL per well of Kinase detection reagent (Promega, ADP-Glo™ Kinase Assay, Cat #V9102) was added and the luminescence signal was measured with a microplate reader. The % inhibition was then used to calculate the Ki values. The average Ki values are shown in Table B, wherein “A” corresponds to Ki<10.0 nM, “B” corresponds to 10.0 nM K Ki<20.0 nM, “C” 20.0 nM K Ki<50.0 nM, “D” corresponds to 50.0 nM K Ki<100.0 nM and “E” corresponds to Ki>100.0 nM.
Target sequence in this assay (Q5S007 970-2527 limits assumed): as the sequence (Q5S007 970-2527 G2019S limits assumed) above, with S1050G counted along it

[5] = A549 cytotoxicity assay (CellTiter-Glo); type: cell-based; details: human, A549 cells, 3 days of incubation
Description: Example D. A549 Cytotoxicity Assay Used to Determine Safety of the LRRK2 Inhibitors
A549 (ATCC, CCL-185) cells were seeded at a density of 4000 cells per well in a 384-well clear bottom plate (Greiner Cat #781090) in 45 μL total volume of the complete cell culture medium DMEM (PanEco, Cat #C420, Russia) with 10% FBS (HyClone Cat #SV30160.03). The cells were allowed to adhere overnight at 37° C., 5% CO2. The 500× compounds solutions in DMSO (Sigma Cat #D2650) were prepared in the compounds plate (Diamond Well Plate, Axigen, Cat #P-384-120SQ-C-S) and DMSO as a vehicle control was included. The 1 μL aliquot of 500× compounds (Compounds plate) was added to the 49 μL culture medium in the Dilution plate (Diamond Well Plate, Axigen, Cat #P-384-120SQ-C-S), mixed and then the 5 μL aliquots of the 10× compounds solutions was transferred to cells followed by centrifugation at 100 g for 1 min. Final DMSO concentration was 0.2%. After 3 days of incubation the 10 μL per well of CellTiter-Glo (Promega, CAT #G7572) was added to the cells, plate was centrifuged at 100 g for 1 min. The luminescence signal was detected with CLARIOstar Plus (BMG LABTECH) microplate reader.

Structure (SMILES) | IC50 (LRRK2 WT [1]) [nM] | Ki (LRRK2[G2019S] [2]) [nM] | IC50 (LRRK2[G2019S] [3]) [nM] | Ki (LRRK2 WT [4]) [nM] | CC50 at 3 days [5] [nM]
CC(C)Oc1ccc2[nH]nc(-c3cnnc(N4CCC(O)C4)c3)c2c1 (stereo in doubt) [Compound 2, (R)-1-(5-(5-isopropoxy-1H-indazol-3-yl)pyridazin-3-yl)pyrrolidin-3-ol] | ≥ 100 | 5 to 10 | ≥ 100 | 10 to 20 | > 10000
Cn1nc(-c2n[nH]c3ccc(OC4(C)CC4)cc23)cc(N2CCOCC2)c1=O [Compound 27, 2-methyl-6-[5-(1-methylcyclopropoxy)-1H-indazol-3-yl]-4-morpholino-pyridazin-3-one] | ≤ 50 | ≤ 5 | ≤ 50 | ≤ 10 | > 27000
C[C@@H]1CN(c2cc(-c3n[nH]c4ccc(OC5(C)CC5)cc34)nn(C)c2=O)C[C@H](C)O1 [Compound 50, 4-[(2S,6R)-2,6-dimethylmorpholin-4-yl]-2-methyl-6-[5-(1-methylcyclopropoxy)-1H-indazol-3-yl]pyridazin-3-one] | ≤ 50 | ≤ 5 | ≤ 50 | ≤ 10 | > 10000
Cn1nc(-c2n[nH]c3ccc(OC4(C)CC4)cc23)cc(N2CC(C)(C)C3COCC32)c1=O (centres unmarked) [Compound 48, 4-(3,3-dimethyl-3a,4,6,6a-tetrahydro-2H-furo[3,4-b]pyrrol-1-yl)-2-methyl-6-[5-(1-methylcyclopropoxy)-1H-indazol-3-yl]pyridazin-3-one] | ≤ 50 | ≤ 5 | ≤ 50 | ≤ 10 | > 10000
CC(C)Oc1ccc2[nH]nc(-c3cc(N4CCCC4)c(=O)n(C)n3)c2c1 [Compound 44, 6-(5-isopropoxy-1H-indazol-3-yl)-2-methyl-4-pyrrolidin-1-yl-pyridazin-3-one] | ≤ 50 | ≤ 5 | ≤ 50 | ≤ 10 | > 10000
CC(C)Oc1ccc2[nH]nc(-c3cc(N4CCOCC4)c(=O)n(C)n3)c2c1 [Compound 14, 6-(5-isopropoxy-1H-indazol-3-yl)-2-methyl-4-morpholino-pyridazin-3-one] | ≥ 100 | ≤ 5 | ≥ 100 | ≤ 10 | > 10000
Cn1nc(-c2n[nH]c3ccc(OC4(C)CC4)cc23)cc(N2CCOCC3(CC3)C2)c1=O [Compound 52, 2-methyl-6-[5-(1-methylcyclopropoxy)-1H-indazol-3-yl]-4-(5-oxa-8-azaspiro[2.6]nonan-8-yl)pyridazin-3-one] | ≤ 50 | ≤ 5 | ≤ 50 | ≤ 10 | > 10000
Cn1nc(-c2n[nH]c3ccc(OC4(C)CC4)cc23)cc(N2CCCC(F)(F)C2)c1=O [Compound 54, 4-(3,3-difluoro-1-piperidyl)-2-methyl-6-[5-(1-methylcyclopropoxy)-1H-indazol-3-yl]pyridazin-3-one] | ≤ 50 | ≤ 5 | ≤ 50 | ≤ 10 | > 10000
CC1CCN(c2cc(-c3n[nH]c4ccc(OC(C)C)cc34)cnn2)C1 (centres unmarked) [Compound 3, 5-isopropoxy-3-[6-(3-methylpyrrolidin-1-yl)pyridazin-4-yl]-1H-indazole] | ≥ 100 | ≤ 5 | ≥ 100 | ≤ 10 | > 10000
Cn1nc(-c2n[nH]c3ccc(OC4(C)CC4)cc23)cc(N2CCC3(CCC3)C2)c1=O [Compound 56, 4-(6-azaspiro[3.4]octan-6-yl)-2-methyl-6-[5-(1-methylcyclopropoxy)-1H-indazol-3-yl]pyridazin-3-one] | ≤ 50 | ≤ 5 | ≤ 50 | ≤ 10 | > 10000
